# In PubChem BioAssay AID256 (DTP/NCI, 2004):
# Several values for one entry are separate records, joined by “and”; a condition that tells them apart may be missing. Identical values can stand only once. Inconclusive results and toxic doses are left out.
# Tested on: CD2F1 mice, L1210 leukemia ip, survival T/C
# Assay: NCI In Vivo Anticancer Drug Screen. Data for tumor model L1210 Leukemia (intraperitoneal) in CD2F1 (CDF1) mice
# Conditions: higher = longer survival
# Method in brief: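 In this screen, transplantable tumors were grown in mice given either the compound or its vehicle. Results were expressed as the treated measurement relative to the control measurement.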
# [1] = endpoint: mean survival time, dose: 100.0 mg/kg/injection, schedule: Q01DX001 (ip), vehicle: saline with Tween-80
# [2] = endpoint: mean survival time, dose: 200.0 mg/kg/injection, schedule: Q01DX001 (ip), vehicle: saline with Tween-80
# [3] = endpoint: mean survival time, dose: 400.0 mg/kg/injection, schedule: Q01DX001 (ip), vehicle: saline with Tween-80
# [4] = endpoint: mean survival time, dose: 100.0 mg/kg/injection, schedule: Q01DX001 (ip), vehicle: saline
# [5] = endpoint: mean survival time, dose: 200.0 mg/kg/injection, schedule: Q01DX001 (ip), vehicle: saline
# [6] = endpoint: mean survival time, dose: 400.0 mg/kg/injection, schedule: Q01DX001 (ip), vehicle: saline
# [7] = endpoint: mean survival time, dose: 50.0 mg/kg/injection, schedule: Q01DX009 (ip), vehicle: saline
# [8] = endpoint: mean survival time, dose: 100.0 mg/kg/injection, schedule: Q01DX009 (ip), vehicle: saline with Tween-80
# [9] = endpoint: mean survival time, dose: 100.0 mg/kg/injection, schedule: Q04DX003 (ip), vehicle: saline with Tween-80
# [10] = endpoint: mean survival time, dose: 200.0 mg/kg/injection, schedule: Q01DX009 (ip), vehicle: saline with Tween-80
# [11] = endpoint: mean survival time, dose: 200.0 mg/kg/injection, schedule: Q04DX003 (ip), vehicle: saline with Tween-80
# [12] = endpoint: mean survival time, dose: 400.0 mg/kg/injection, schedule: Q01DX009 (ip), vehicle: saline with Tween-80
# [13] = endpoint: mean survival time, dose: 400.0 mg/kg/injection, schedule: Q04DX003 (ip), vehicle: saline with Tween-80
# [14] = endpoint: mean survival time, dose: 50.0 mg/kg/injection, schedule: Q01DX009 (ip), vehicle: saline with Tween-80
# [15] = endpoint: mean survival time, dose: 100.0 mg/kg/injection, schedule: Q01DX009 (ip), vehicle: saline
# [16] = endpoint: mean survival time, dose: 200.0 mg/kg/injection, schedule: Q01DX009 (ip), vehicle: saline
# [17] = endpoint: mean survival time, dose: 100.0 mg/kg/injection, schedule: Q04DX003 (ip), vehicle: saline
# [18] = endpoint: mean survival time, dose: 200.0 mg/kg/injection, schedule: Q04DX003 (ip), vehicle: saline
# [19] = endpoint: mean survival time, dose: 400.0 mg/kg/injection, schedule: Q04DX003 (ip), vehicle: saline
smiles,measurement,setting,value
N#Cc1cn(C2OC(CO)C(O)C2O)n2ccnc12 (stereo not drawn),T/C,"endpoint: median survival time, dose: 12.5 mg/kg/injection, schedule: Q01DX005 (ip), vehicle: water",118 % of control
same,T/C,"endpoint: median survival time, dose: 25.0 mg/kg/injection, schedule: Q01DX005 (ip), vehicle: water",102 % of control
same,T/C,"endpoint: median survival time, dose: 50.0 mg/kg/injection, schedule: Q01DX005 (ip), vehicle: water",116 % of control
same,T/C,"endpoint: median survival time, dose: 100.0 mg/kg/injection, schedule: Q01DX005 (ip), vehicle: water",109 % of control
same,T/C,"endpoint: median survival time, dose: 200.0 mg/kg/injection, schedule: Q01DX005 (ip), vehicle: water",115 % of control
CCCCCCCCCCCCCCCCCCCCCC(=O)CCCCCCCCCCCCCCCCCCCCC,T/C,[1],86 % of control
same,T/C,[2],93 % of control
same,T/C,[3],101 % of control
CCCC(C)N (stereo not drawn),T/C,[4],98 % of control
same,T/C,[5],98 % of control
same,T/C,[6],94 % of control
Cc1cccc(CN(C)C)n1,T/C,"endpoint: mean survival time, dose: 100.0 mg/kg/injection, schedule: Q04DX002 (ip), vehicle: saline",105 % of control
[CH3][Sn]([CH3])([CH3])[CH2]CCBr,T/C,"endpoint: mean survival time, dose: 0.39 mg/kg/injection, schedule: Q01DX009 (ip), vehicle: saline",107 % of control
same,T/C,"endpoint: mean survival time, dose: 0.78 mg/kg/injection, schedule: Q01DX009 (ip), vehicle: saline",107 % of control
same,T/C,[7],89 % of control
COc1ccccc1NC(=O)Nc1cccc(Cl)c1,T/C,[8],95 % of control
same,T/C,[9],94 % of control
same,T/C,[10],93 % of control
same,T/C,[11],97 % of control
same,T/C,[12],88 % of control
same,T/C,[13],86 % of control
NCc1ccc(N)cc1,T/C,"endpoint: mean survival time, dose: 75.0 mg/kg/injection, schedule: Q01DX001 (ip), vehicle: saline",98 % of control
same,T/C,"endpoint: mean survival time, dose: 150.0 mg/kg/injection, schedule: Q01DX001 (ip), vehicle: saline",95 % of control
same,T/C,"endpoint: mean survival time, dose: 300.0 mg/kg/injection, schedule: Q01DX001 (ip), vehicle: saline",96 % of control
CNc1nc(NC)nc(NC)n1,T/C,"endpoint: mean survival time, dose: 12.5 mg/kg/injection, schedule: Q01DX009 (ip), vehicle: Klucel (hydroxypropylcellulose) (HPC)",95 % of control
same,T/C,"endpoint: mean survival time, dose: 25.0 mg/kg/injection, schedule: Q01DX009 (ip), vehicle: Klucel (hydroxypropylcellulose) (HPC)",97 % of control
same,T/C,"endpoint: mean survival time, dose: 50.0 mg/kg/injection, schedule: Q01DX009 (ip), vehicle: Klucel (hydroxypropylcellulose) (HPC)",97 % of control
same,T/C,"endpoint: mean survival time, dose: 100.0 mg/kg/injection, schedule: Q01DX009 (ip), vehicle: Klucel (hydroxypropylcellulose) (HPC)",100 % of control
same,T/C,"endpoint: mean survival time, dose: 200.0 mg/kg/injection, schedule: Q01DX009 (ip), vehicle: Klucel (hydroxypropylcellulose) (HPC)",103 % of control
CS(=O)(=O)c1cc(C(F)(F)F)cc([N+](=O)[O-])c1Cl,T/C,[14],103 % of control
same,T/C,[8],103 % of control
same,T/C,[9],97 % of control
same,T/C,[11],94 % of control
COc1cc(/C=C(\C#N)c2ccc([N+](=O)[O-])cc2)ccc1O,T/C,"endpoint: mean survival time, dose: 100.0 mg/kg/injection, schedule: Q04DX002 (ip), vehicle: saline with Tween-80",100 % of control
same,T/C,"endpoint: mean survival time, dose: 200.0 mg/kg/injection, schedule: Q04DX002 (ip), vehicle: saline with Tween-80",87 % of control
same,T/C,"endpoint: mean survival time, dose: 400.0 mg/kg/injection, schedule: Q04DX002 (ip), vehicle: saline with Tween-80",91 % of control
COC1CC(O)C(OS(=O)(=O)c2ccc(C)cc2)C(C)O1 (stereo not drawn),T/C,[4],112 % of control
same,T/C,[5],100 % of control
same,T/C,[6],102 % of control
Cn1c(=O)c2c(nc(NCCCO)n2C)n(C)c1=O,T/C,"endpoint: mean survival time, dose: 12.5 mg/kg/injection, schedule: Q01DX005 (ip), vehicle: distilled water + Tween-80",100 % of control
same,T/C,"endpoint: mean survival time, dose: 25.0 mg/kg/injection, schedule: Q01DX005 (ip), vehicle: distilled water + Tween-80",94 % of control
same,T/C,"endpoint: mean survival time, dose: 50.0 mg/kg/injection, schedule: Q01DX005 (ip), vehicle: distilled water + Tween-80",94 % of control
same,T/C,"endpoint: mean survival time, dose: 100.0 mg/kg/injection, schedule: Q01DX005 (ip), vehicle: distilled water + Tween-80",94 % of control
same,T/C,"endpoint: mean survival time, dose: 200.0 mg/kg/injection, schedule: Q01DX005 (ip), vehicle: distilled water + Tween-80",98 % of control
CC(=O)OCC1OC(n2c(Br)nc3c(=O)[nH]c(N)nc32)C(OC(C)=O)C1OC(C)=O (stereo not drawn),T/C,[9],100 % of control
same,T/C,[11],105 % of control
same,T/C,[13],107 % of control
N/C(=N\c1nc(N)cc(=O)[nH]1)Nc1ccc(S(N)(=O)=O)cc1,T/C,[15],96 % of control
same,T/C,[16],95 % of control
same,T/C,"endpoint: mean survival time, dose: 400.0 mg/kg/injection, schedule: Q01DX009 (ip), vehicle: saline",95 % of control
N/C(=N/OCc1ccccc1)c1ncn(C2CCCC2)c1NC=O,T/C,"endpoint: mean survival time, dose: 100.0 mg/kg/injection, schedule: Q01DX001 (ip), vehicle: other",112 % of control
same,T/C,"endpoint: mean survival time, dose: 200.0 mg/kg/injection, schedule: Q01DX001 (ip), vehicle: other",104 % of control
same,T/C,"endpoint: mean survival time, dose: 400.0 mg/kg/injection, schedule: Q01DX001 (ip), vehicle: other",102 % of control
CC(C)/C=C\C=C\C(C)C,T/C,[14],96 % of control
same,T/C,[8],103 % of control
same,T/C,[10],96 % of control
O=C(O)c1ccc(C(=O)O)o1.[NH-]C1CCCCC1[NH-].[Pt+2],T/C,"endpoint: mean survival time, dose: 1.25 mg/kg/injection, schedule: Q04DX003 (ip), vehicle: dextrose",122 % of control and 102 % of control
same,T/C,"endpoint: mean survival time, dose: 2.5 mg/kg/injection, schedule: Q04DX003 (ip), vehicle: dextrose",111 % of control and 112 % of control
same,T/C,"endpoint: mean survival time, dose: 5.0 mg/kg/injection, schedule: Q04DX003 (ip), vehicle: dextrose",117 % of control
same,T/C,"endpoint: mean survival time, dose: 20.0 mg/kg/injection, schedule: Q04DX003 (ip), vehicle: dextrose",183 % of control
same,T/C,"endpoint: mean survival time, dose: 40.0 mg/kg/injection, schedule: Q04DX003 (ip), vehicle: dextrose",94 % of control
CCCCCCCCCc1ccc(OCCOCCOCCOCCOCCOCCOCCOCCOCCOC(C)N2CCCC2=O)cc1 (stereo not drawn),T/C,"endpoint: mean survival time, dose: 25.0 mg/kg/injection, schedule: Q01DX009 (ip), vehicle: saline with Tween-80",96 % of control
same,T/C,"endpoint: mean survival time, dose: 50.0 mg/kg/injection, schedule: Q04DX003 (ip), vehicle: saline with Tween-80",108 % of control
same,T/C,[9],93 % of control
Nc1cc2n[nH]nc2c(=O)[nH]1,T/C,"endpoint: median survival time, dose: 50.0 mg/kg/injection, schedule: Q01DX005 (ip), vehicle: saline with Tween-80",107 % of control
same,T/C,"endpoint: median survival time, dose: 100.0 mg/kg/injection, schedule: Q01DX005 (ip), vehicle: saline with Tween-80",101 % of control
same,T/C,"endpoint: median survival time, dose: 200.0 mg/kg/injection, schedule: Q01DX005 (ip), vehicle: saline with Tween-80",100 % of control
CS(=O)(=O)c1cnc2ccccc2n1,T/C,[17],97 % of control
same,T/C,[18],86 % of control
same,T/C,[19],95 % of control
C/C(=N\N=C(/C)c1cccc([N+](=O)[O-])c1)c1cccc([N+](=O)[O-])c1,T/C,"endpoint: mean survival time, dose: 100.0 mg/kg/injection, schedule: Q04DX002 (ip), vehicle: Klucel (hydroxypropylcellulose) (HPC)",104 % of control
same,T/C,"endpoint: mean survival time, dose: 200.0 mg/kg/injection, schedule: Q04DX002 (ip), vehicle: Klucel (hydroxypropylcellulose) (HPC)",97 % of control
same,T/C,"endpoint: mean survival time, dose: 400.0 mg/kg/injection, schedule: Q04DX002 (ip), vehicle: Klucel (hydroxypropylcellulose) (HPC)",108 % of control
CCSC(SCC)[C@H](NC(C)=O)[C@@H](O)[C@H](O)[C@H](O)CO,T/C,[17],101 % of control
same,T/C,[18],98 % of control
same,T/C,[19],95 % of control
COCC1OC(OC(=O)c2ccccc2)C(OC(=O)c2ccccc2)C(OC(=O)c2ccccc2)C1OC (stereo not drawn),T/C,[14],101 % of control
same,T/C,[10],93 % of control
CCOC(=O)NCNC(C)C(=O)O (stereo not drawn),T/C,[7],115 % of control
same,T/C,[15],104 % of control
same,T/C,[16],115 % of control
Cc1ncc(C=C(C(=O)O)C(=O)O)n1Cc1ccccc1,T/C,[1],98 % of control
same,T/C,[2],104 % of control
same,T/C,[3],104 % of control
CCCCN(c1ccccc1)S(=O)(=O)c1ccc(Br)cc1,T/C,[8],97 % of control
same,T/C,[9],98 % of control
same,T/C,[10],95 % of control
same,T/C,[11],102 % of control
same,T/C,[12],97 % of control
same,T/C,[13],101 % of control
CCCCSC(=N)N,T/C,"endpoint: mean survival time, dose: 25.0 mg/kg/injection, schedule: Q01DX001 (ip), vehicle: saline",100 % of control
same,T/C,"endpoint: mean survival time, dose: 50.0 mg/kg/injection, schedule: Q01DX001 (ip), vehicle: saline",105 % of control
same,T/C,[4],113 % of control
